Key:
[1] = system: RXF 486 human tumor xenograft cells; assay: Oncotest tumor clonogenic assay, RXF 486; format: cell-based; settings: colony formation, Renal RXF 486, hypernephroid adeno carcinoma, clear cell, read-out: Absolute IC50
[2] = Pharmacokinetic properties in dogs; format: in vivo, dog; settings: for AUC: both sexes, beagle, dog, plasma, oral gavage, HEC suspension
Method: The range of administered doses is between 1 and 12 mg/kg in an HEC suspension.
Blood samples are collected into tubes containing potassium ethylenediaminetetraacetic acid from each dog at 0 (pre-dose), 0.5, 1, 2, 4, 8, and 24 hours post dose. Some studies also include samples collected at 0.25 hr and 12 hr time points. These samples are centrifuged to obtain plasma, which is subsequently frozen prior to analysis. […] The standard curves range from 1 to 5000 ng/mL. Plasma concentrations above the upper limit of quantitation are determined by dilution.

pS240/244 S6RP = assay: In vivo target inhibition in U87MG tumors, pS240/244 S6RP; settings: Mus musculus, U-87 MG; for inhibition at 0.5 mg/kg: 0.5 mg/kg oral; for inhibition at 1.5 mg/kg: 1.5 mg/kg oral; for inhibition at 3 mg/kg: 3 mg/kg oral; for inhibition at 6 mg/kg: 6 mg/kg oral; for inhibition at 10 mg/kg: 10 mg/kg oral; for inhibition at 12 mg/kg: 12 mg/kg oral
Method: Implant U87MG human glioblastoma cells (5×10^6) subcutaneously into the flank of athymic nude mice in 0.2 mL of matrigel. Ten days post-implantation, dose mice orally according to a time course, single dose/single time point, or dose response protocol for the determination of TMED50 (threshold minimum effective dose). Flash freeze tumors at harvest and collect blood for the determination of parent compound plasma exposure and the calculation of TMEC50 (threshold minimum effective concentration) in the case of dose response studies. Homogenize tumors in 500 μL of XY Lysis Buffer (10 μg/mL Leupeptin, 10 μg/mL Trypsin-Chymotrypsin Inhibitor, 10 μg/mL Tosyl phenyl-alanyl chloromethyl ketone, 10 μg/mL Aprotinin, 60 mM Beta-Glycerol Phosphate, 1% Triton X100, 25 mM Tris pH 7.5, 2.5 mM Pyrophosphate, 150 mM NaCl, 2 mM p-tosyl-L-arginine methyl ester, 15 mM para-nitrophenyl phosphate, 5 mM benzamidine, 1 mM sodium vanadate, 10 mM sodium fluoride, 50 μg/mL phenyl-methane sulfonyl fluoride, 1 mM 1,4-dithiothreitol (DTT), 15 mM EDTA pH 8.0, 5 mM EGTA pH 8.0, 1 μM Microcystin, 1 μM Okadaic Acid, and 1 Roche Complete protease inhibitor mini-tablet per 10 mL) using RNase Free Pellet Pestle (Kimble-Kontes). Aliquot lysates and either assay immediately or store at −80° C. for later testing. Use the multiplex format of Meso Scale Discovery (Gaithersburg, Md.) ELISA technology and measure in vivo target inhibition of PI3K and mTOR to assess effects on phosphorylation of the threonine 308 site of AKT, a downstream effector of PI3K; phosphorylation on the threonine 389 site of p70 S6K and on the serine 240/244 site of S6RP, downstream effectors of mTORC1; phosphorylation of the serine 473 site of AKT, a downstream effector of mTORC2. Add 20 μg of lysate to carbon electrode containing 96-well plates pre-spotted with the appropriate capture antibodies. Probe the protein of interest using a ruthenium labeled detection antibody. Pass current over the electrode in the presence of read buffer containing the co-reactant TPA, and quantitate and record the light generated by electro-chemiluminescence with the MSD Sector 6000 instrument. Calculate percent inhibitions relative to the vehicle control group and perform ANOVA analysis using the JMP software package for the determination of statistical significance.

U87MG = assay: Cell proliferation assay (CellTiter-Glo), U87MG; format: cell-based; settings: Homo sapiens, U-87 MG, 96 h
Method: (§1) Plate cells in a 96-well plate at 2000 cells/well in 100 μL of cell specific medium (for U87MG use DMEM, 10% FBS, 25 mM 4-(2-hydroxyethyl)-1-piperazineethanesulfonic acid (HEPES), 1.0 mM sodium pyruvate, and 0.1 mM Non Essential Amino Acids (ATCC Cat.#30-2002); for HT1080 use Eagle's MEM, 10% FBS (ATCC Cat.#30-2003); for H1975, A2780, SJSA-1 and 786-O use RPMI 1640, 10% FBS (ATCC Cat.#30-2001); for A204 use McCoy's 5A, 10% FBS (ATCC Cat.#30-2007) except in column 1 use medium only as the blank control. Incubate the plates overnight at 37° C. and 5% CO2. On the next day, prepare compound stocks at 1 mM in DMSO and serially dilute in DMSO in a 96-well round bottom polypropylene plate. Assay compounds at 10 concentrations in duplicate, 4 compounds per plate.
(§2) Transfer 4 μL of the DMSO serial dilutions to a 96 well plate and add 196 μL of culture medium to create a 10× stock for dosing. Gently transfer 11 μL of each dosing stock to the corresponding well of the cell plate resulting in a 0.2% DMSO concentration and a 111 μL final volume. […]
(§3) Prepared the CellTiter-Glo reagent (Promega, Cat: G7571) and add 100 µL to each well after the incubation is complete, homogenize the cells by mixing on an orbital shaker for 2 min and then incubate at RT for 10 min to allow the luminescent signal to stabilize. Record the luminescent raw data with a Wallac Victor V plate reader. […]

A2780 = assay: Cell proliferation assay (CellTiter-Glo), A2780; format: cell-based; settings: Homo sapiens, A2780, 72 h
Method: as §1, §2, §3

[3] = system: LXFA 526 human tumor xenograft cells; assay: Oncotest tumor clonogenic assay, LXFA 526; format: cell-based; settings: colony formation, NSCLC LXFA 526, adeno carcinoma, pd, read-out: Absolute IC50
[4] = system: SXF 1186 human tumor xenograft cells; assay: Oncotest tumor clonogenic assay, SXF 1186; format: cell-based; settings: colony formation, Sarcoma SXF 1186, osteoblastic osteosarcoma, md, read-out: Absolute IC50

SMILES: CO[C@@H](C)Cn1c(=O)n(C)c2cnc3ccc(-c4cncc(C(C)(C)O)c4)cc3c21 [Example 1, 8-[5-(1-Hydroxy-1-methylethyl)pyridin-3-yl]-1-[(2S)-2-methoxypropyl]-3-methyl-1,3-dihydro-2H-imidazo[4,5-c]quinolin-2-one]
- IC50 [1]: 112 nM
- AUC ([2]; 1 mg/kg, 10 animals): 1160 ng·h/mL
- AUC ([2]; 3 mg/kg, 10 animals): 3780 ng·h/mL
- AUC ([2]; 4.5 mg/kg, 2 animals): 5920 ng·h/mL
- AUC ([2]; 6 mg/kg, 2 animals): 9620 ng·h/mL
- AUC ([2]; 9 mg/kg, 2 animals): 10800 ng·h/mL
- AUC ([2]; 12 mg/kg, 2 animals): 19200 ng·h/mL
- correlation of determination R^2, linear regression of the mean AUC values for each dose ([2]; oral, 1 to 12 mg/kg): 0.96
- inhibition at 0.5 mg/kg (pS240/244 S6RP; 0.5 hr post dose): 9%
- inhibition at 0.5 mg/kg (pS240/244 S6RP; 4 hr post dose): 5%
- inhibition at 1.5 mg/kg (pS240/244 S6RP; 0.5 hr post dose): 4%
- inhibition at 1.5 mg/kg (pS240/244 S6RP; 4 hr post dose): 12%
- inhibition at 3 mg/kg (pS240/244 S6RP; 0.25 hr post dose): -11%
- inhibition at 3 mg/kg (pS240/244 S6RP; 0.5 hr post dose): 9%
- inhibition at 3 mg/kg (pS240/244 S6RP; 1 hr post dose): 51%
- inhibition at 3 mg/kg (pS240/244 S6RP; 3 hr post dose): 64%
- inhibition at 3 mg/kg (pS240/244 S6RP; 4 hr post dose): 37%
- inhibition at 6 mg/kg (pS240/244 S6RP; 0.25 hr post dose): 7%
- inhibition at 6 mg/kg (pS240/244 S6RP; 0.5 hr post dose): 26%
- inhibition at 6 mg/kg (pS240/244 S6RP; 1 hr post dose): 66%
- inhibition at 6 mg/kg (pS240/244 S6RP; 2 hr post dose): 83%
- inhibition at 6 mg/kg (pS240/244 S6RP; 4 hr post dose): 58%
- inhibition at 6 mg/kg (pS240/244 S6RP; 6 hr post dose): 55%
- inhibition at 6 mg/kg (pS240/244 S6RP; 12 hr post dose): -35%
- inhibition at 10 mg/kg (pS240/244 S6RP; 0.5 hr post dose): -4%
- inhibition at 10 mg/kg (pS240/244 S6RP; 1 hr post dose): 69%
- inhibition at 10 mg/kg (pS240/244 S6RP; 2 hr post dose): 89%
- inhibition at 10 mg/kg (pS240/244 S6RP; 4 hr post dose): 95%
- inhibition at 10 mg/kg (pS240/244 S6RP; 8 hr post dose): 16%
- inhibition at 12 mg/kg (pS240/244 S6RP; 0.5 hr post dose): 55%
- inhibition at 12 mg/kg (pS240/244 S6RP; 4 hr post dose): 97%
- IC50 (U87MG): 74 nM
- IC50 (A2780): 90 nM
- IC50 [3]: 84 nM
- IC50 [4]: 110 nM

— patent US8658668B2, “PI3 kinase/mTOR dual inhibitor” (Eli Lilly and Company, priority 2011, dated 2014)
